For assay [1], the target named is T1, CDK2/Cyclin E1 (Homo sapiens, UniProt P24941). Briefly: CDK2/Cyclin E1 Caliper LabChip EZ Reader mobility shift assay. Format: biochemical. Also on record: purchased Eurofins 14-475. The following applies: read-out: Caliper Assay (CDK2/CCNE1): IC50. The method, boiled down: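 Mobility-shift kinase assay: compound titrations preincubated 30 min with enzyme and ATP, reaction started with 5-FAM-QSPKKG-CONH2 peptide. Final 2.5 nM CDK2/Cyclin E1, 100 μM ATP, 1.5 μM peptide, HEPES pH 7.5; stopped with EDTA after 100 min. IC50 from four-parameter fit of normalized conversion ratio.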

Assay [2] addresses T1, CDK2/Cyclin E1. Briefly: HotSpot kinase inhibition assay (radiometric, Histone H1 substrate). The following applies: 10 μM ATP, read-out: Kinase Assay (CDK2/CCNE): IC50. The class given is biochemical. The method, then:
Inhibition of CDK2/CCNE1 activities in the presence of compounds of the present disclosure was evaluated using the HotSpot™ assay (proprietary to Reaction Biology Corporation). In the assay, CDK2/Cyclin E1 (Signalchem C29-18G) catalyzed the transfer of radioactive phosphate to amino acid residues of Histone H1 (Sigma, H5505), which are detected radiometrically.
Reactions contained 20 mM HEPES pH 7.5, 10 mM MgCl2, 1 mM EGTA, 2 mM DTT, 0.02% Brij35, 0.02 mg/mL BSA, 0.1 mM Na3VO4, 1% DMSO, 1.5 nM CDK2/Cyclin E1, 10 μM ATP, and 20 μM Histone H1.
CDK2/Cyclin E1 and Histone H1 were mixed in reaction buffer. To this mixture dose titrations of inhibitors in 100% DMSO were added in by acoustic transfer. The compound mixtures were incubated for 20 minutes, then the kinase reactions were initiated by the addition of a mixture of ATP and ^33P ATP for final concentrations of 10 μM total ATP, 20 μM Histone H1, and 1.5 nM CDK2/Cyclin E1. The reactions were carried out for 120 minutes, then spotted on a P81 ion exchange filter paper, and extensively washed with 0.75% phosphoric acid. The resulting radioactive counts were normalized to yield % activity, plotted against compound concentration, and fit to a four-parameter equation to determine the IC50 for each compound.

For `CNC(=O)[C@@H](NC(=O)[C@H]1CN(C(=O)c2cnn(Cc3ccccc3)c2)CC12CN(C(=O)CC1CC1)C2)[C@@H](C)OCc1ccccc1` [I-8B], the IC50 was 1000 to 10000 nM on CDK2/Cyclin E1 [1] and 10000 to 100000 nM at CDK2/Cyclin E1 [2].

For the compound `CNC(=O)[C@@H](NC(=O)C1CN(C(=O)c2cnn(CC3CCCCC3)c2)CC12CN(C(=O)C1CC1(C)C)C2)[C@@H](C)OCc1ccccc1` (stereo partly shown) [I-10], the IC50 on CDK2/Cyclin E1 [1] is 100 to 1000 nM; at CDK2/Cyclin E1 [2], not above 1000 nM.

Take `COC[C@H]1CCCN(C(=O)[C@@H](NC(=O)[C@@H]2CN(C(=O)c3cncs3)CC23CN(C(=O)[C@H]2CC2(C)C)C3)[C@@H](C)O[C@H](C)C2CCCCC2)C1` [I-367]: the IC50 is not above 10 nM at CDK2/Cyclin E1 [1] and not above 1000 nM at CDK2/Cyclin E1 [2].

`COC[C@H]1CCCN(C(=O)[C@@H](NC(=O)[C@@H]2CN(C(=O)c3cncs3)CC23CN(C(=O)[C@H]2CC2(C)C)C3)[C@@H](C)O[C@H](C)C2CCCCC2)C1` [I-466]: the IC50 at CDK2/Cyclin E1 [1] was not above 10 nM; at CDK2/Cyclin E1 [2], not above 1000 nM.

For the compound `CNC(=O)[C@@H](NC(=O)[C@H]1CN(C(=O)c2cnn(Cc3ccccc3)c2)CC12CN(C(=O)OC(C)(C)C)C2)[C@@H](C)OCc1ccccc1` [I-3B], the IC50 is more than 10000 nM at CDK2/Cyclin E1 [1] and 1000 to 10000 nM at CDK2/Cyclin E1 [2].

Turning to `C[C@@H](OCC1CCCCC1)[C@H](NC(=O)[C@@H]1CN(C(=O)c2cnn(Cc3ccccc3)c2)CC12CN(C(=O)[C@H]1CC1(C)C)C2)C(C)(C)O` [I-281], the IC50 is not above 10 nM on CDK2/Cyclin E1 [1] and not above 1000 nM on CDK2/Cyclin E1 [2].

On to `CC1(C)C[C@@H]1C(=O)N1CC2(CN(C(=O)c3cnn(Cc4ccccc4)c3)C[C@H]2C(=O)N2CC[C@H](OCC3CCCCC3)C2)C1` [I-256], for which the IC50 on CDK2/Cyclin E1 [1] was 100 to 1000 nM; at CDK2/Cyclin E1 [2], 1000 to 10000 nM.

Turning to `CNC(=O)[C@@H](NC(=O)[C@@H]1CN(C(=O)c2cnn(Cc3ccccc3)c2)CC12CN(C(=O)CC1CC1)C2)[C@@H](C)OCc1ccccc1` [I-8A], the IC50 on CDK2/Cyclin E1 [1] and on CDK2/Cyclin E1 [2] was 1000 to 10000 nM throughout.

In the case of `COC[C@H]1CCCN(C(=O)[C@@H](NC(=O)[C@@H]2CN(C(=O)c3cncs3)CC23CN(C(=O)[C@H]2CC2(C)C)C3)[C@@H](C)OCC2CCCCC2)C1` [I-196A, (S)—N-((2S,3R)-3-(cyclohexylmethoxy)-1-((S)-3-(methoxymethyl)piperidin-1-yl)-1-oxobutan-2-yl)-2-((S)-2,2-dimethylcyclopropanecarbonyl)-6-(thiazole-5-carbonyl)-2,6-diazaspiro[3.4]octane-8-carboxamide], the figures for the IC50 at CDK2/Cyclin E1 [1] and on CDK2/Cyclin E1 [2] were not above 10 nM and not above 1000 nM, respectively.

Turning to `CC1(C)C[C@@H]1C(=O)N1CC2(CN(C(=O)c3cnn(Cc4ccccc4)c3)C[C@H]2C(=O)NCc2ccc(C3CCCCC3)nn2)C1` [I-377], the values for the IC50 at CDK2/Cyclin E1 [1] and on CDK2/Cyclin E1 [2] were 100 to 1000 nM and not above 1000 nM, respectively.

In the case of `CNC(=O)[C@@H](NC(=O)C1CN(C(=O)c2cnn(Cc3ccccn3)c2)CC12CN(C(=O)C1CC1(C)C)C2)[C@@H](C)OCc1ccccc1` (stereo partly shown) [I-11], the IC50 on CDK2/Cyclin E1 [1] was 100 to 1000 nM; at CDK2/Cyclin E1 [2], not above 1000 nM.

As to `CNC(=O)[C@@H](NC(=O)C1CN(C(=O)c2cnn(C)c2)CC12CN(C(=O)C1CC1(C)C)C2)[C@@H](C)OCc1ccccc1` (stereo partly drawn) [I-14, N-((2S,3R)-3-(benzyloxy)-1-(methylamino)-1-oxobutan-2-yl)-2-(2,2-dimethylcyclopropane-1-carbonyl)-6-(1-methyl-1H-pyrazole-4-carbonyl)-2,6-diazaspiro[3.4]octane-8-carboxamide], the IC50 at CDK2/Cyclin E1 [1] and on CDK2/Cyclin E1 [2] was 1000 to 10000 nM throughout.

In the case of `CC1(C)C[C@@H]1C(=O)N1CC2(CN(C(=O)c3cnn(Cc4ccccc4)c3)C[C@H]2C(=O)N2CCN(CC3CCCCC3)C(=O)C2)C1` [I-253], the values for the IC50 at CDK2/Cyclin E1 [1] and on CDK2/Cyclin E1 [2] were 100 to 1000 nM and 1000 to 10000 nM, respectively.

Consider `CNC(=O)[C@@H](NC(=O)[C@@H]1CN(C(=O)c2cnn(Cc3ccccc3)c2)CC12CN(C(=O)OC(C)(C)C)C2)[C@@H](C)OCc1ccccc1` [I-3A, tert-butyl (S)-6-(1-benzyl-1H-pyrazole-4-carbonyl)-8-(((2S,3R)-3-(benzyloxy)-1-(methylamino)-1-oxobutan-2-yl)carbamoyl)-2,6-diazaspiro[3.4]octane-2-carboxylate], for which the IC50 was 100 to 1000 nM on CDK2/Cyclin E1 [1] and not above 1000 nM at CDK2/Cyclin E1 [2].

These data come from patent publication US20240174680A1, “CDK2 INHIBITORS AND METHODS OF USING THE SAME” (Cedilla Therapeutics, Inc., priority 2021, published 2024).
